Measured values from publication PMC3555816, “A Lysine at the C-Terminus of an Odorant-Binding Protein is Involved in Binding Aldehyde Pheromone Components in Two Helicoverpa Species” (PLoS ONE, 2013).
Read-outs that look alike come from different tables or passages of the source.

Columns and labels:
[1] = molecular target: T1, HarmOBP7-wt (Helicoverpa armigera, UniProt F5ANI5); test: Competitive binding assay, displacement of 1-NPN from HarmOBP7-wt; conditions: for Affinity to HarmOBP7 (in words): competitive binding with 1-NPN
Method: (§1) Emission fluorescence spectra were recorded on a Hitachi F-4500 at 25°C in a right angle configuration, with a 1 cm light path quartz cuvette and 5 nm slits for both excitation and emission. The protein was dissolved in 50 mM Tris-HCl buffer, pH 7.4, while ligands were added as 1 mM methanol solutions.
The probe was excited at 337 nm and emission spectra were recorded between 380 and 450 nm. […] Dissociation constant for 1-NPN and the stoichiometry of binding was obtained by processing the data with Prism software.

[2] = molecular target: T1, HarmOBP7-wt; test: Fluorescence binding of 1-NPN to HarmOBP7-wt
Method: (§2) Emission fluorescence spectra were recorded on a Hitachi F-4500 at 25°C in a right angle configuration, with a 1 cm light path quartz cuvette and 5 nm slits for both excitation and emission. […]
(§3) The probe was excited at 337 nm and emission spectra were recorded between 380 and 450 nm. […] Dissociation constant for 1-NPN and the stoichiometry of binding was obtained by processing the data with Prism software. Dissociation constants of the competitors were calculated from the corresponding [IC]50 values (concentrations of ligands halving the initial fluorescence value of 1-NPN), using the equation: KD = [IC50]/1+[1-NPN]/K1-NPN, [1-NPN] being the free concentration of 1-NPN and K1-NPN being the dissociation constant of the complex protein/1-NPN.

[3] = molecular target: HarmOBP7-m2 (Helicoverpa armigera, UniProt F5ANI5); test: Fluorescence binding of 1-NPN to HarmOBP7-m2 (K123M); conditions: read-out: Dissociation constant of 1-NPN; HarmOBP7-m2, 2 µM protein in Tris, pH 7.4, three replicates, SD 0.22
Method: as §1, §3

[4] = molecular target: T2, HarmOBP7-m1 (Helicoverpa armigera, UniProt F5ANI5); test: Fluorescence binding of 1-NPN to HarmOBP7-m1 (lacks the last 6 residues)
T2 sequence (F5ANI5 22-142): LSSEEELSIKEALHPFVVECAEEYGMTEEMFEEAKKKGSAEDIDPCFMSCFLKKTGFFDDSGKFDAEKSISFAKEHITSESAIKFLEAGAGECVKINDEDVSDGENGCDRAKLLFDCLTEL
Method: as §2, §3

[5] = HarmOBP7-wt, 2 µM protein and 2 µM 1-NPN, pH 7.4, concentration of ligand halving initial 1-NPN fluorescence, read-out: [IC]50
[6] = HarmOBP7-wt, calculated from [IC]50: KD = [IC50]/1+[1-NPN]/K1-NPN, read-out: KD (calculated dissociation constant)
[7] = HarmOBP7-wt, 2 µM protein and 2 µM 1-NPN, pH 7.4, values larger than 16 extrapolated from the competitive binding curves, read-out: [IC]50

T1 sequence (F5ANI5 entry or part of it): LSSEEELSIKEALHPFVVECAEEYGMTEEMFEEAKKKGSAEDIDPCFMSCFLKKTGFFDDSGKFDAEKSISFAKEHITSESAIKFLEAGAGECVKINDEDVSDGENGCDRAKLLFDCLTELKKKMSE
HarmOBP7-m2, sequence (F5ANI5 entry or part of it): as above

| Structure (SMILES) | IC50 [1, 5] | Kd [1, 6] | further results |
| --- | --- | --- | --- |
| COc1cc(/C=C/C=O)ccc1O [Coniferyl aldehyde] |  |  | IC50 [1]: 12.7 µM; Kd [1]: 9.6 µM |
| CCCCCCCCCCCCCCCCO [1-Hexadecanol] |  |  | IC50 [1, 7]: > 16 µM |
| COc1cc(CC(=O)O)ccc1O [Homovanillic acid] |  |  | IC50 [1]: > 16 µM |
| O=Cc1ccccc1 [Benzaldehyde] |  |  | IC50 [1]: 10.8 µM; Kd [1]: 8.2 µM |
| CCCCOC(=O)c1ccc(C(C)(C)C)cc1 [Butyl p-tert-butyl benzoate] | 6.9 µM | 5.2 µM |  |
| CCCCCCCCCCC(C)=O [2-Dodecanone] |  |  | IC50 [1, 7]: > 16 µM |
| CCCCCCCCCCCCC=O [Tridecanal] | 4.9 µM | 3.7 µM |  |
| CCCC/C=C\CCCCCCCCCC=O [Z-11-hexadecenal] |  |  | Affinity to HarmOBP7 (in words) ([1]; HarmOBP7-wt): good affinity |
| CCCCCCCCCCCCCCCCC=O [Heptadecanal] | 9.1 µM | 6.9 µM |  |
| CCCCCCCCCCO [1-Decanol] |  |  | IC50 [1]: > 16 µM |
| O=C(O)/C=C/c1ccccc1 [Cinnamic acid] |  |  | IC50 [1]: > 25 µM |
| CCCCCCCCCCCCO [1-Dodecanol] |  |  | IC50 [1, 7]: > 25 µM |
| CC(C)c1ccc(C=O)cc1 [p-Isopropylbenzaldehyde] | 10.5 µM | 7.9 µM |  |
| COc1ccc(-c2ccccc2)cc1 [4-Phenylanisole] |  |  | IC50 [1, 7]: > 16 µM |
| CCCCCCCCCCCCCC=O [Tetradecanal] | 3.2 µM | 2.4 µM |  |
| CCCCCCCCCCCCCO [1-Tridecanol] | 4.6 µM | 3.5 µM |  |
| Cc1ccc2ccccc2c1 [2-Methylnaphthalene] |  |  | IC50 [1]: > 16 µM |
| c1ccc(Nc2cccc3ccccc23)cc1 [1-NPN, N-phenyl-1-naphthylamine] |  |  | Kd ([2]; 2 µM protein in Tris, pH 7.4, three replicates, SD 0.63, read-out: Dissociation constant of 1-NPN): 5.5 µM; Effect of pH on affinity of 1-NPN (in words) ([2]; pH range 3.5 to 9.5, basic conditions, no significant loss of binding down to pH 3.5): marked increase in affinity; Kd [3]: 3.2 µM; Kd ([4]; HarmOBP7-m1, 2 µM protein in Tris, pH 7.4, three replicates, SD 1.1, read-out: Dissociation constant of 1-NPN): 6.8 µM; Effect of pH on affinity of 1-NPN (in words) ([4]; HarmOBP7-m1, pH range 3.5 to 9.5, basic conditions, no significant loss of binding down to pH 3.5): marked increase in affinity |
| CCCCCCCCCCCCCCCO [1-Pentadecanol] |  |  | IC50 [1, 7]: > 25 µM |
| CCCCCC/C=C\CCCCCCCC=O [Z-9-hexadecenal] |  |  | Affinity to HarmOBP7 (in words) ([1]; HarmOBP7-wt): good affinity |
| CCCCCCCCCCCCCCO [1-Tetradecanol] |  |  | IC50 [1]: 6.7 µM; Kd [1]: 5.1 µM |
| COC(=O)C=Cc1ccccc1 [Methyl cinnamate] |  |  | IC50 [1, 7]: > 16 µM |
| CCCCCCCCCC(=O)OCC [Ethyl decanoate] |  |  | IC50 [1, 7]: > 16 µM |
| CCCCCCCCCCCCCCCCCCO [1-Octadecanol] |  |  | IC50 [1, 7]: > 25 µM |
| CCCCC/C(C=O)=C/c1ccccc1 [α-Amylcinnamaldehyde] | 5.5 µM | 4.2 µM |  |

Second part, led by results:

| IC50 [1, 5] | Kd [1, 6] | Structure (SMILES) | further results |
| --- | --- | --- | --- |
| 14.7 µM | 11.1 µM | COc1ccccc1C=CC=O [2-Methoxycinnamaldehyde] |  |
| 5.2 µM | 3.9 µM | CCCCCCCCCCCCOC(C)=O [Dodecyl acetate] |  |
| 10.7 µM | 8.1 µM | CCCCCCCCCCC=O [Undecanal] |  |
| 4.7 µM | 3.5 µM | CCCCCCCCCCCCCC(=O)OCC [Ethyl myristate] |  |
| 3.5 µM | 2.7 µM | CC(C)CCCC(C)CCOC(=O)c1ccccc1 (stereo not shown) [3,7-Dimethyloctylbenzoate] |  |
| 9.6 µM | 7.3 µM | CCCCOC(=O)/C=C/c1ccccc1 [Butyl cinnamate] |  |
| 10.3 µM | 7.8 µM | CCCCCCCCCCCC=O [Dodecanal] |  |
| 12.6 µM | 12.6 µM | CCCCCCCCCCCCCCCC(=O)OCC [Ethyl palmitate] |  |
| 4.5 µM | 3.4 µM | CC(C)(C)c1ccc(C(=O)c2ccccc2)cc1 [p-tert-Butylbenzophenone] |  |
| 9.6 µM | 7.3 µM | CCCCCCCCCCCC(C)=O [2-Tridecanone] |  |
| 4.3 µM | 3.3 µM | CCCCCCCCCCCC(=O)OCC [Ethyl laurate] |  |
